# Assay results taken from US20250207109A1, “ENGINEERED SPLIT DHFR-BASED METHODS AND SYSTEMS FOR SELECTING CELLS THAT HAVE STABLY ACQUIRED A HETEROLOGOUS POLYNUCLEOTIDE” (DNA Twopointo, Inc., priority 2022, published 2025).
# Columns and labels:
# Type in all cases: cell-based, human
# FKBP12.6tr_F36V = test: Split DHFR complementation assay to show rimiducid-dependent dimerization; details: cells expressing FKBP12.6tr_F36V-DHFR fragment fusions; rimiducid 100 nM, methotrexate 0.2 μM
# Excerpt: The Split DHFR concept was employed as the basis of a test of whether a fragment of the human protein FKBP12.6 could dimerize in the presence of rimiducid. For this purpose, an F36V substitution was introduced into FKBP12.6 in an effort to render it sensitive to rimiducid-dependent dimerization as is the case for the paralogous protein FKBP12. See Clackson T, Yang W, Rozamus L W, Hatada M, Amara J F, Rollins C T, Stevenson L F, Magari S R, Wood S A, Courage N L, Lu X, Cerasoli F, Gilman M, Holt D A. Redesigning an FKBP-ligand interface to generate chemical dimerizers with novel specificity. Proc Natl Acad Sci USA. 1998; 95 (18): 10437-42. doi: 10.1073/pnas.95.18.10437.
# The truncated version of FKBP12.6 carrying the F36V substitution (SEQ ID NO: 192) was fused at its carboxy terminus to the two fragments of murine DHFR as in Example 1, with one of the fragments bearing the L22F and F31S substitutions to confer methotrexate resistance (SEQ ID NOs: 190 and 191). […]
# (§1) At left is the result for cells expressing the DHFR fragments fused to the P7A/P8A heterodimerizing coiled-coil peptides. […] Untransfected cells were analyzed under identical conditions as a control (at right).
# Jurkat T lymphoma cells = test: Methotrexate selection of Jurkat cells co-transfected with pairs of transposons encoding mouse split DHFR fragments, flow cytometry for mTagBFP2/plobRFP; details: 0.1 μM methotrexate; compared with coiled coil pairs
# Excerpt: Transgenes encoding the six DHFR fusion proteins regulated by the EF1-alpha promoter were each placed in a Leap-In transposon vector that also included a transgene encoding a fluorescent protein. For the transposons expressing the amino-terminal piece of DHFR, the fluorescent protein was mTagBFP2. For the transposons expressing the carboxy-terminal piece, the fluorescent protein was plobRFP. These fluorescent protein transgenes were included so that cells carrying the two kinds of transposons could be readily identified by flow cytometry or fluorescent microscopy.
# Jurkat T lymphoma cells were transfected with the appropriate pairs of transposons (i.e., transposons encoding both an amino- and carboxy-terminal piece of DHFR fused to leucine zipper or coiled coil sequences that should associate stably with one another). The ThermoFisher Neon® electroporator was used with 100 μl tips and three pulses of 1350V, each pulse 10 mS in length. […]
# Successful methotrexate selection of cells carrying both transfected transposons was evident by the fact that the majority of cells expressed both mTagBFP2 and plobRFP. The cells were analyzed at ten days or six weeks after transfection as indicated.
# Jurkat cells = test: Split DHFR complementation assay, methotrexate selection of Jurkat cells expressing DHFR fragment fusion proteins; details: 0.2 μM methotrexate, two weeks; rimiducid 100 nM for FKBP12.6tr pair
# Excerpt: The truncated version of FKBP12.6 carrying the F36V substitution (SEQ ID NO: 192) was fused at its carboxy terminus to the two fragments of murine DHFR as in Example 1, with one of the fragments bearing the L22F and F31S substitutions to confer methotrexate resistance (SEQ ID NOs: 190 and 191).
# As a control, the P7A/P8A pair of DHFR fragment fusion proteins (involving SEQ ID Nos: 188 and 189) was also used. Whereas the P7A/P8A pair of constructs co-expressed the DHFR fragments with a red fluorescent protein (RFP; plobRFP) or a blue fluorescent protein (BFP; mTagBFP2), both FKBP12.6 tr transposons carried a BFP transgene.
# Jurkat cells were co-transfected by electroporation (ThermoFisher Neon; 100 μl tips; 1350V, three 10 ms pulses) with pairs of plasmids carrying transposons encoding the two DHFR fragments (7.5 μg of each) together with mRNA encoding the Leap-In Transposase® enzyme (2 μg). The cells were plated in RPMI-1640 medium supplemented with fetal bovine serum (10% vol/vol) and methotrexate (0.2 μM). Rimiducid at 100 nM was added to the medium of cells that had been transfected with the FKBP12.6tr pair of plasmids.
# as §1
molecule,measurement,setting,value
CC[C@H](C(=O)N1CCCC[C@H]1C(=O)O[C@H](CCc1ccc(OC)c(OC)c1)c1cccc(OCC(=O)NCCNC(=O)COc2cccc([C@@H](CCc3ccc(OC)c(OC)c3)OC(=O)[C@@H]3CCCCN3C(=O)[C@@H](CC)c3cc(OC)c(OC)c(OC)c3)c2)c1)c1cc(OC)c(OC)c(OC)c1 [rimiducid],rimiducid dependence of survival in methotrexate,FKBP12.6tr_F36V,the cells failed to thrive when the drug was removed
leucine zipper pair of constructs: GCN4 Leucine Zipper-Linker-Mouse DHFR (1-105; L22F/F31S) and (106-186) fusion pair,average level of red and blue fluorescence of selected cells,Jurkat T lymphoma cells,higher average level of both red and blue fluorescence than the pairs involving the coiled coil sequences
P7A/P8A coiled coil fusion proteins: P7A / P8A Coiled Coil-Linker-Mouse DHFR (1-105; L22F/F31S) and (106-186) fusion pair (protein) chain 1: MGEIAALEAKNAALKAEIAALEAKNAALKAGCGGGGSGGGGSVRPLNCIVAVSQNMGIGKNGDFPWPPLRNESKYFQRMTTTSSVEGKQNLVIMGRKTWFSIPEKNRPLKDRINIVLSRELKEPPRGAHFLAKSLDDALRLIEQPEL chain 2: MKIAALKAENAALEAKIAALKAENAALEAGGCGGGGSGGGGSASKVDMVWIVGGSSVYQEAMNQPGHLRLFVTRIMQEFESDTFFPEIDLGKYKLLPEYPGVLSEVQEEKGIKYKFEVYEKKD,methotrexate resistance / survival of transfected cells,Jurkat cells,conferred methotrexate resistance on the transfected cells
